The conditions of series [1]: cited from earlier work.
The subject of a further series is gastric lesions. As to conditions: compared with the other known proton-pump inhibitors; cited from earlier work.
The nature of series [2]: Solubility of the racemic potassium salt solvated with ethylene glycol in ethanol/ethylene glycol mixture (80% V-20% V) with potassium hydroxide excess. Conditions: ethanol/ethylene glycol (80% V-20% V), KOH excess about 0.2 molar equivalent. In kind it is physicochemical.
The conditions of series [3]: compared with S-tenatoprazole itself and other proton-pump inhibitors; cited from earlier work.
Series [4] is described as follows: Solubility of the racemic potassium salt solvated in methanol in methanolic potassium hydroxide solution. The series is classed as physicochemical. Conditions: KOH excess about 0.2 molar equivalent.
Series [5] in a line: Solubility of the racemic potassium salt solvated with ethanol in ethanolic potassium hydroxide solution. The series is classed as physicochemical. Conditions: KOH excess about 0.2 molar equivalent.
The mark [6] stands for this setting: relative to the other proton-pump inhibitors, for instance omeprazole or lansoprazole.

As for `COc1ccc2nc([S+]([O-])Cc3ncc(C)c(OC)c3C)[nH]c2n1` (stereo not shown) [tenatoprazole, 5-methoxy-2-[[(4-methoxy-3,5-dimethyl-2-pyridyl)methyl]sulfinyl]imidazo[4,5-b]pyridine], in series [1] (setting [6]), the duration of action result is “markedly longer duration of action” and the plasmatic half-life result is “about seven times greater”. For the same molecule, in the series with gastric lesions, the “level of relief of the symptoms and of cicatrization of gastric lesions” value was “greater level of relief of the symptoms and of cicatrization of gastric lesions”.
Turning to `COc1ccc2[nH]c([S@@+]([O-])Cc3ncc(C)c(OC)c3C)nc2n1` [S-tenatoprazole], the pharmacokinetic properties result in series [1] (compared with the racemic mixture and the enantiomer of R configuration) was “significantly different”.
On to `COc1ccc2nc([S+]([O-])Cc3ncc(C)c(OC)c3C)[n-]c2n1.[K+]` (racemic) [racemic mixture of the potassium salt solvated with ethylene glycol, potassium tenatoprazole ethylene glycolate], for which the “Solubility (mass %)” value is given as 20.3 mass % in series [2] (28 ° C.), 24 mass % in series [2] (32 ° C.), 25.6 mass % in series [2] (34.5 ° C.) and 33.5 mass % in series [2] (39 ° C.).
For `COc1ccc2[nH]c([S+]([O-])Cc3ncc(C)c(OC)c3C)nc2n1.O.[Na]` (stereo not shown) [S-tenatoprazole sodium salt monohydrate], the solubility entry in series [3] was “excellent solubility”.
Consider `COc1ccc2nc([S+]([O-])Cc3ncc(C)c(OC)c3C)[n-]c2n1.[K+]` (racemic) [racemic mixture of the potassium salt solvated in methanol, potassium tenatoprazole dimethanolate], for which the “Solubility (mass %)” value is on record as 4.4 mass % in series [4] (30 ° C.); 5.2 mass % in series [4] (38 ° C.); 6.5 mass % in series [4] (40 ° C.); 7.7 mass % in series [4] (42 ° C.); 12.2 mass % in series [4] (56 ° C.).
Consider `COc1ccc2nc([S+]([O-])Cc3ncc(C)c(OC)c3C)[n-]c2n1.[K+]` (racemic) [racemic mixture of the potassium salt solvated with ethanol, potassium tenatoprazole diethanolate], for which the “Solubility (mass %)” value in series [5] (33.9 ° C.) was found to be 4.24 mass %; in series [5] (37 ° C.), 5.3 mass %.

The values are drawn from US8546574B2, “Conglomerates of tenatoprazole potassium salts” (priority 2006, dated 2013).
